Substitutions are numbered along the chain they refer to.
Assays:
[1] = target: T1, Zea mays EPSPS variant G102A (Zea mays, UniProt O24566, G101A); assay: EPSPS substrate saturation kinetics, G102A
T1 sequence (O24566 with tags, fused parts or gaps G101A): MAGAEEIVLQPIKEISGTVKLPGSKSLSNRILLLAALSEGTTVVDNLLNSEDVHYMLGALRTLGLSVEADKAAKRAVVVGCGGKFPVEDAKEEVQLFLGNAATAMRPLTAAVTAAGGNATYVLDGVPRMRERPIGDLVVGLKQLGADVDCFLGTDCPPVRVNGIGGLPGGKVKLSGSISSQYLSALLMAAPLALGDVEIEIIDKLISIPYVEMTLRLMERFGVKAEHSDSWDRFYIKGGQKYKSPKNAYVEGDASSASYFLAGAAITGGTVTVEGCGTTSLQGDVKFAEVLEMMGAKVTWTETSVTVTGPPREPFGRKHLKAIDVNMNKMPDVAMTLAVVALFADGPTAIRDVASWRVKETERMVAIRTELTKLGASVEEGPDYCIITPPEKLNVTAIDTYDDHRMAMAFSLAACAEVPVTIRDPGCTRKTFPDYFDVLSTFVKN

[2] = target: T2, Helianthus annuus EPSPS, native, SEQ ID NO:9 (Helianthus annuus, UniProt A0A251S0N3); assay: EPSPS substrate saturation kinetics, native sunflower; format: biochemical
T2 sequence (A0A251S0N3 67-518): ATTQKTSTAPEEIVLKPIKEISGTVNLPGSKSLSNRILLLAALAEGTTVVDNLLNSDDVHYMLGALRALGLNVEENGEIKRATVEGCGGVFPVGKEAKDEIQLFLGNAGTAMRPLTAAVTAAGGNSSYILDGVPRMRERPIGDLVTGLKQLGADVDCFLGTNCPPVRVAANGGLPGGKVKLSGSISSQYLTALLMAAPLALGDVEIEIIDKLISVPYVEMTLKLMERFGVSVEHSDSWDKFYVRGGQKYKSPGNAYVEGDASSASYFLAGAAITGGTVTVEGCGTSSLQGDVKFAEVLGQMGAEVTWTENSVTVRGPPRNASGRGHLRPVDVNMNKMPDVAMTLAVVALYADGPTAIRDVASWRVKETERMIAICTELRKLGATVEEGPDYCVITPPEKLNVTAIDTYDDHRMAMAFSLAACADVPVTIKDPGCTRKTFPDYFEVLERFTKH
Protocol: (§1) EPSPS activity was determined by quantifying the phosphate generated from the EPSPS reaction. Release of inorganic phosphate was coupled to reaction with 2-amino-6-mercapto-7-methylpurine ribonucleoside, catalyzed by purine-nucleoside phosphorylase (M R Webb, Proc. Natl. Acad. Sci. 89:4884-4887, 1992). The absorbance change that occurs was monitored at 360 nm, where the extinction is 11,200 M^−1 cm^−1, with a Spectramax plate reader (Molecular Devices). To determine kinetic parameters, the varied substrate was present at seven concentrations (the eighth being the blank, containing no substrate) ranging from 4 to 400 uM and the unvaried substrate present at saturation. Six microliters of 50-fold concentrated stock solutions of the varied substrate were placed in the wells of the 96-well assay plate and reactions were started with the addition of a mixture containing 25 mM Hepes, pH 7, 100 mM KCl, 0.3 mM 2-amino-6-mercapto-7-methylpurine ribonucleosde, 1 uM (1 unit/ml) purine-nucleoside phosphorylase (Sigma N8264) and 200 uM of the non-varied substrate. Reactions were monitored with a Spectramax plate reader. The Michaelis-Menten kinetics protocol of the Spectramax software was customized for the substrate concentrations used. The software returns values of KM and Vmax using the Lineweaver-Burke transformation of the Michaelis-Menten equation. To determine kcat, Vmax (uM/min) was divided by the enzyme concentration (uM). […] KI was then calculated from the following form of the Michaelis-Menten equation for competitive inhibition: KI=KM[I]/(KM app−KM) KM approximates the dissociation constant of the enzyme-substrate complex while kcat is the rate of conversion of substrate to product when the substrate concentration is saturating. kcat/KM is a widely accepted parameter for catalytic efficiency when substrate concentration is low (˜KM). […] The parameter kcat/KM×KI is used to quantify both catalytic efficiency and insensitivity and thus the overall fitness of the enzyme.
Native EPSPS amino acid sequences of rice (Oryza sativa) (SEQ ID NO:7), sorghum (Sorghum halepense) (SEQ ID NO:8), and sunflower (Helianthus annus) (SEQ ID NO:9) including the chloroplast transit peptide sequences were assembled and analyzed for mapping the corresponding amino acid mutations from the maize 868-H6. If complete EPSPS sequences were not available, appropriate adjustments were made based on sequence alignments and conserved residue mapping.
There is no complete sequence available for Helianthus annuus. […]
ChloroP Prediction Server (Emanuelsson, O. et al. 1999. Protein Sci. 8(5):978-84) was used to approximate the amino terminus of the mature EPSPS proteins. […] The synthetic genes were cloned into a plasmid vector and expressed, purified and analyzed as described in Example 1.

[3] = target: T3, Zea mays EPSPS variant S-N at positions 103-107 (Zea mays, UniProt O24566, P106N/T102S); assay: EPSPS substrate saturation kinetics, maize variant 103S 107N; format: biochemical
T3 sequence (O24566 with tags, fused parts or gaps T102S/P106N): T1 sequence (O24566 with tags, fused parts or gaps G101A) with A102G, T103S, P107N
Protocol: as §1, with “enzyme. […]” for “enzyme.”

[4] = PEP as substrate, glyphosate as inhibitor

SMILES	kcat/KM ([1]; PEP) [min^−1uM^−1]	kcat ([1]; PEP varied) [s⁻¹]	kcat ([2]; PEP varied) [s⁻¹]	Km ([2]; read-out: KM (PEP), PEP varied) [µM]	kcat ([3]; PEP varied)	Ki ([1]; KI (glyphosate), competitive with PEP) [µM]	Ki ([1]; Ki, substrate saturation, Zm-G102A) [µM]	(kcat/KM)*KI [1, 4]	(kcat/KM)*KI ([1]; substrate saturation, Zm-G102A)	Ki [2] [µM]	(kcat/KM)*KI [2, 4]	Ki [3] [µM]	(kcat/KM)*KI [3, 4]
C=C(OP(=O)(O)O)C(=O)O [PEP, phosphoenolpyruvate]	2.2	11.6	29.52	18.8	161	–	–	–	–	–	–	–	–
O=C(O)CNCP(=O)(O)O [glyphosate, N-phosphonomethylglycine]	–	–	–	–	–	2290	1340	5137	2820	0.15	14	244	1033
